Experiments:
HeLa cells [1] = experiment: Cell cycle analysis / cell division; type: cell-based; conditions: 20 hours
Method: For cell cycle analysis, HeLa cells were plated in 384 well plates (1500 cells/well) and treated with 10 μM drugs for 20 hours. Cells were then fixed and stained with 5 μM Vybrant DyeCycle Green (Invitrogen) for 1 hour at 37° C. and plates were scanned with an Acumen eX3 (TTP Labtech) fluorescence microplate cytometer using its 488 nm laser and a cell cycle histogram profile was generated for each drug treatment using the CDD (Collaborative Drug Discovery) software. […] Additionally, HeLa cells were treated with increasing concentrations of colchicine and compound 10 for 20 hours and the drug response dose curves were used to measure the mitotic arrest IC50 for each treatment.
Briefly, HeLa cells were treated with increasing concentrations of 10, 10a, and 10b for 20 hours and the drug response dose curves were used to measure the mitotic arrest IC50 for each treatment. Also, the percentage of cells undergoing normal cell division was quantified for DMSO, colchicine, 10b, or taxol-treated cells. Data represent the average±SD of 3 independent experiments, with 20 cells counted for each. Asterisks denotes p-value<0.0001.

[2] = system: patient-derived glioblastoma cells (HK-309); experiment: CellTiter-Glo cell viability, patient-derived glioblastoma cells; type: cell-based; conditions: HK-309, 72 hours
Method: (§1) The cell viability IC50 of each compound was determined using Promega CellTiter-Glo Luminescent Cell Viability Assay kit by measuring the total ATP levels to quantify the number of metabolically active cells upon drug treatment as described in Crouch et al., J Immunol Methods 1993, 160, (1), 81-8. Briefly, the compounds were suspended in DMSO at 10 mM and diluted in 384 plates (20 μl/well in DMSO) in triplicate by a 14-point titration (12 nM to 100 μM). 50 μl of HeLa cells or patient derived glioblastoma cells (HK-309) (2000 cells/well) were then treated with the prepared dilutions of the drugs (0.5 μl) and incubated at 37° C. and 5% CO2. 72 hours later 50 μl of CellTiter-Glo reagent was added to each well followed by a 2 minutes shaking and a 10-minute incubation to lyse the cells. The relative luminescent intensity units (RLU) of each well was measured using a Tecan M1000 microplate reader (Tecan Group Ltd.) with its green filter and 1 second integration time.
(§2) Cells used in Example 2 and other examples disclosed herein were cultured as follows: Adherent HeLa cells and patient derived glioblastoma cells were grown with 5% CO2 at 37° C. in F12:DMEM 50:50 medium (Invitrogen) containing 10% FBS and 1% penicillin/streptomycin. To obtain HeLa cells synchronized in mitosis, cycling cells were treated with 2 mM thymidine (Sigma-Aldrich) for eighteen hours, washed three times with PBS, and released into fresh media until they entered mitosis eight hours post-release. Patient-derived glioblastoma cells (HK-309) were collected and grown with approval from the UCLA Institutional Review Board. HK-309 was derived from a recurrent glioblastoma taken from a person. The cells were initially propagated as cancer stem cell-containing spheres in serum-free medium containing basic fibroblast growth factor and epidermal growth factor (Preprotech) as described previously by Visnyei et al., Mol Cancer Ther 2011, 10, (10), 1818-28.

HeLa cells [3] = experiment: CellTiter-Glo cell viability, HeLa cells; type: cell-based; conditions: Homo sapiens; HeLa cells, 72 hours, CellTiter-Glo
Method: as §1, §2
For mitotic arrest IC50s, cells were treated with a twenty-point-2-fold-titration (190 pM to 10 μM) of each compound tested for 20 hours. For cell viability IC50s, cells were treated with a fourteen-point-2-fold-titration (12.2 nM to 100 μM). Mitotic arrest IC50 was determined by measuring the percent G2/M arrest using the Vybrant DyeCycle Green (Invitrogen) assay described above. Cell viability IC50 was determined using the CellTiter-Glo Assay (Promega), which measures total ATP levels. Plates were read with a Tecan M1000 micro-plate reader at 540 nm. The CDD software was used for generating IC50 and IC90 values.

tubulin = biological target: T1, tubulin (Sus scrofa, UniProt P02554); experiment: In vitro tubulin polymerization assay (HTS-tubulin polymerization kit, Cytoskeleton); type: biochemical; conditions: 3 μM compound, fluorescence, 70 minutes at 37° C.
T1 construct: purchased Cytoskeleton Inc. BK011P
T1 sequence (P02554 whole entry): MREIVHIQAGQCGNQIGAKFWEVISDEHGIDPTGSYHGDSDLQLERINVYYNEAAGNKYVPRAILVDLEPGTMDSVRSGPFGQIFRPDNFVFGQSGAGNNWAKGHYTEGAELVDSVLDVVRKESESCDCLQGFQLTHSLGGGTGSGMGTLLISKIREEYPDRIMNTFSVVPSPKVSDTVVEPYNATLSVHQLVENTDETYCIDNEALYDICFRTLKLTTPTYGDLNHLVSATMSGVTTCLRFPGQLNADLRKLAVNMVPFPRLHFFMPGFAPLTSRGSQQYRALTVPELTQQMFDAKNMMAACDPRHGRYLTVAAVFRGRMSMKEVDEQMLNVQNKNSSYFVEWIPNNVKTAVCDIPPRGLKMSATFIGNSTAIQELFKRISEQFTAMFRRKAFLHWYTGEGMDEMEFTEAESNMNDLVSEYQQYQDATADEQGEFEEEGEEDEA
T1 sequence (P02550 whole entry partner): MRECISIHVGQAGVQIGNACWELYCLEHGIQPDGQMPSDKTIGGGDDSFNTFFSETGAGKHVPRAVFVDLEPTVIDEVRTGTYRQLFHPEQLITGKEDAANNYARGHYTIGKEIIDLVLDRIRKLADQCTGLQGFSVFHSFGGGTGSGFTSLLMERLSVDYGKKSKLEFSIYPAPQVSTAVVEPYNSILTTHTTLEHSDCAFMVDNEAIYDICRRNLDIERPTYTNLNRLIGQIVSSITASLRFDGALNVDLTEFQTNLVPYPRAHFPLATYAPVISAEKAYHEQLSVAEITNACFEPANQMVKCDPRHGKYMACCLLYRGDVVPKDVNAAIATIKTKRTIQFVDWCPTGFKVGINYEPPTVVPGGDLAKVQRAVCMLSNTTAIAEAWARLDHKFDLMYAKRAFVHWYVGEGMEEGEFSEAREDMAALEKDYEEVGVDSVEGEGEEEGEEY
Method: 1.5 ul of 10× strength compound, 20 μl of tubulin solution and Triton X-100 at a final concentration of 0.01% were added to each well in a 384 well plate. The reactions were assembled on ice to prevent tubulin pre-polymerization. For kinetic measurements, microtubule polymerization was monitored by reading the fluorescence at 420 nm (due to the incorporation of a fluorescent reporter into microtubules as polymerization occurs) every ten seconds using a Tecan M1000 microplate reader (FIG. 6B). […] Fluorescence increased as polymerization occurred, due to the incorporation of 4′,6-diamidino-2-phenylindole. Fluorescence was monitored every minute for 70 minutes at 37° C.
Tubulin polymerization reactions were carried out according to the manufacturer (Cytoskeleton, BK011P) in the presence of 3 μM colchicine, MI-181, taxol or DMSO. Polymerization was monitored with a Tecan M1000 micro-plate reader at 420 nm for 70 minutes at 37° C. The results are depicted in FIG. 11.

HeLa cells [4] = experiment: Microtubule stability by immunofluorescence microscopy; type: cell-based; conditions: increasing concentrations, anti-α-tubulin staining
Method: Next, microtubule stability was analyzed in HeLa cells treated with increasing concentrations of each of these three compounds by fixing the cells with 4% paraformaldehyde, staining them with Hoechst 33342 (DNA dye) to visualize their DNA and anti-α-tubulin antibodies to visualize microtubule structures and then imaging them by immunofluorescence microscopy.

β-tubulin = experiment: Crystal structure of T2R-TTL tubulin complex soaked with ligand; type: binding, bovine; conditions: T2R-TTL crystal soaked 24 hours with 1 mM compound
Method: The crystal structure of tubulin bound to two ligands described here was obtained using an established system for tubulin crystal growth. […] Methods in Cell Biology 2010, 95:373-390.) Briefly, bovine αβ-tubulin, human RB3 or rat STMN4 stathmin-like domain, and chicken tubulin tyrosine ligase (TTL) reconstitute to form a stathmin-bound αβ-tubulin (T2R) T2R-TTL complex, which readily crystallizes. […]
The final resolution cutoffs described here were determined optimally from a subset of diffraction images that took into consideration the signal-to-noise ratio for reflection intensities and the random half-data set correlation coefficient, CC1/2 (Karplus P. A., Diederichs K. Linking crystallographic model and data quality. Science 2012, (New York, N.Y.) 336:1030-1033.) […]

Row | SMILES | effect on cell division and cell death (HeLa cells [1]) | IC50 [2] | IC50 (HeLa cells [3]) | inhibition of microtubule (tubulin) polymerization in vitro (tubulin) | microtubule stability in treated cells (HeLa cells [4]) | binding to tubulin in crystal structure (β-tubulin)
1 | O=c1[nH]c(/C=C/c2ccccc2)nc2sc3c(c12)CCCC3 [Compound 10, (E)-2-styryl-5,6,7,8-tetrahydrobenzo[4,5]thieno[2,3-d]pyrimidin-4(3H)-one] | inhibit cell division and trigger apoptotic cell death | 352 nM | 552 nM | potent inhibitors of microtubule polymerization similar to colchicine | destabilized in a drug dose-dependent manner | –
2 | CCOc1ccc(C2=Nn3c(nnc3-c3ccccc3OC)SC2)cc1 [Compound C2, reference compound] | – | – | – | – | – | bound to β-tubulin
